Assay results reported in patent publication US7834013B2, “Aminophenylcyclopropyl carboxylic acids and derivatives as agonists to GPR40” (GlaxoSmithKline LLC, priority 2003, dated 2010).
Counter-ions that a name gives are not always drawn.

Molecular target: T1, GPR40 (Homo sapiens, UniProt O14842)
T1 construct: expressed in transfected cells
Experiment: GPR40 SAR Primary Assay (Elk-1/Gal4-luc+ reporter, luciferase activity)
Assay type: cell-based
Settings: stable GPR40 Elk-1/Gal4-luc+ CHO cell line, 5 hours incubation
Procedure: An existing stable GPR40 Elk-1/Gal4-luc^+ CHO cell line generated by electroporation and functional cloning was used. Cells were maintained in a humidified incubator at 37° C./5% CO2 in complete media containing DMEM/F12 (Gibco, #11039-021), 5% FBS (Gibco, #16140-071) and 1% Glutamine (Gibco, #25030-081). Cell maintenance passages were made at 1:40 dilution every 3-4 days. Forty eight hours prior to assay, 15e6 cells were added to 200 ml of complete media then seeded into a 1200 cm^2-cell factory and returned to a humidified incubator at 37° C./5% CO2. 20 hours prior to assay, the growth media was removed and replaced with 200 ml of serum-free DMEM/F12 to quiesce background activity. At the time of assay, cells were harvested using non-enzymatic cell dissociation solution (Sigma, #C-5914), washed and counted. The 20 hour starve media was collected and used as condition media for cell assay plating. Cells were plated at a concentration of 10,000 cells/well in a total well volume of […] in black 96-well clear bottom polystyrene plates (CoStar, #3904). Test compounds were prepared as serial dilutions in 100% DMSO, then 1 ul was delivered to each well resulting in a final concentration of 1% DMSO. The plates were then returned to a humidified incubator at 37° C./5% CO2 for 5 hours. Following the incubation, the medium was replaced with 50 ul of a 1:1 mixture of SteadyGlo™ (Promega, #E2550) and dPBS containing 1 mM CaCl2 and 1 mM MgCl2. Plates were then sealed and subjected to dark adaptation at room temperature for 10 minutes. Luciferase activity was measured on a Packard TopCount™ microplate scintillation counter using 2 seconds per well count time.
Data analysis was performed using standard methods.
The Normalization Equation used was 100*(Unknown compound response−Background response)/(Agonist Max response−Background response).
The Curve Fit Function used was y=((Vmax*x^n)/(K^n+x^n))+Y2.
A percent max response and pEC50 were recorded for each compound. Although specific pEC50 values are given, these values should be considered exemplary. Those skilled in the art will appreciate the variability in performing and recording the biological activity assays that are herein described. The compounds of the present invention provide a pEC50 of at least 5.0.

T1 sequence (O14842 whole entry): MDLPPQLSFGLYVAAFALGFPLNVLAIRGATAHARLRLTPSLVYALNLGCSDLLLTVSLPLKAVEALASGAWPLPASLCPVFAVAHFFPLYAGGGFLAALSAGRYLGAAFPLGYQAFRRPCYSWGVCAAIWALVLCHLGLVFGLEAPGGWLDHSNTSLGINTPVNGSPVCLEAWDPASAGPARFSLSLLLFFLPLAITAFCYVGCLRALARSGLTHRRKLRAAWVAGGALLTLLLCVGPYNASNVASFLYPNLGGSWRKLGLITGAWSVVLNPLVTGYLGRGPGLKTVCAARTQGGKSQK

| SMILES | EC50 [nM] |
| --- | --- |
| O=C(O)C1CC1c1ccc(NCc2cccc(Oc3ccccc3)c2)cc1Cl (single isomer, unassigned; (+)) [Example 30a, (+)-(Trans)-2-[2-chloro-4-({[3-(phenyloxy)phenyl]methyl}amino)phenyl]cyclopropanecarboxylic Acid] | 398 |
| O=C(O)C1CC1c1cc(F)c(NCc2cccc(Oc3ccccc3)c2)cc1F (single isomer, unassigned; (+)) [Example 31a, (+)-(trans)-2-[2,5-difluoro-4-({[3-(phenyloxy)phenyl]methyl}amino)phenyl]cyclopropanecarboxylic Acid] | 501 |
| CC(C)NC(=O)C1CC1c1ccc(NCc2cccc(Oc3ccccc3)c2)cc1 (single isomer, unassigned; (+)) [Example 44, (+)-(trans)-N-(1-methylethyl)-2-[4-({[3-(phenyloxy)phenyl]methyl}amino)phenyl]cyclopropanecarboxamide] | 10 |
| Cc1nc(-c2ccc(C(F)(F)F)cc2)sc1CNc1ccc(C2CC2C(=O)O)cc1 (single isomer, unassigned; (-)) [Example 29, (−)-(cis)-2-{4-[({4-methyl-2-[4-(trifluoromethyl)phenyl]-1,3-thiazol-5-yl}methyl)amino]phenyl}cyclopropanecarboxylic Acid] | 316 |
| O=C(O)[C@H]1C[C@@H]1c1ccc(NCc2cccc(Oc3cccc(C(F)(F)F)c3)c2)cc1 [Example 33, (+)-(trans)-2-(4-{[(3-{[3-(trifluoromethyl)phenyl]oxy}phenyl)methyl]amino}phenyl)cyclopropanecarboxy lic Acid] | 25.1 |
| Cc1nc(-c2ccc(C(F)(F)F)cc2)sc1CNc1ccc(C2CC2C(=O)N[C@@H](C)c2ccccc2)cc1 (stereo partly drawn) [Example 40, Enantiomerically Enriched (trans)-2-{4-[({4-methyl-2-[4-(trifluoromethyl)phenyl]-1,3-thiazol-5-yl}methyl)amino]phenyl}-N-[(1S)-1-phenylethyl]cyclopropanecarboxamide] | 50.1 |
| Cc1nc(-c2ccc(C(F)(F)F)cc2)sc1CNc1ccc(C2CC2C(=O)NC(C)C)cc1 (stereo not drawn) [Example 53, Enantiomerically Enriched N-isopropyl-2-{4-[({4-methyl-2-[4-(trifluoromethyl)phenyl]-1,3-thiazol-5-yl}methyl)amino]phenyl}cyclopropanecarboxamide] | 10 |
| O=C(NCC1CC1)C1CC1c1ccc(NCc2cccc(Oc3ccccc3)c2)cc1 (stereo not drawn) [Example 54, Enantiomerically Enriched N-(cyclopropylmethyl)-2-{4-[(3-phenoxybenzyl)amino]phenyl}cyclopropanecarboxamide] | 20 |

The next compounds have a lower EC50 than those just listed; values first:

| EC50 [nM] | SMILES |
| --- | --- |
| 6.31 | Cc1nc(-c2ccc(C(F)(F)F)cc2)sc1CNc1ccc([C@@H]2C[C@H]2C(=O)NO)cc1 (single isomer, unassigned) [Example 41, Enantiomerically Enriched (trans)-N-hydroxy-2-{4-[({4-methyl-2-[4-(trifluoromethyl)phenyl]-1,3-thiazol-5-yl}methyl)amino]phenyl}cyclopropanecarboxamide] |
| 7.94 | Cc1nc(-c2ccc(C(F)(F)F)cc2)sc1CNc1ccc([C@@H]2C[C@H]2C(=O)NC2CCC2)cc1 (single isomer, unassigned) [Example 42, Enantiomerically Enriched (trans)-N-cyclobutyl-2-{4-[({4-methyl-2-[4-(trifluoromethyl)phenyl]-1,3-thiazol-5-yl}methyl)amino]phenyl}cyclopropanecarboxamide] |
| 3.98 | O=C(O)C1CC1c1ccc(NCc2cccc(Oc3ccccc3)c2)cc1 (single isomer, unassigned; (+)) [Example 26, (+)-(Trans)-2-{4-[(3-phenoxybenzyl)amino]phenyl}cyclopropanecarboxylic Acid] |
| 3.98 | Cc1nc(-c2ccc(C(F)(F)F)cc2)sc1CNc1ccc(C2CC2C(=O)O)cc1 (single isomer, unassigned; (+)) [Example 27, (+)-(Trans)-2-{4-[({4-methyl-2-[4-(trifluoromethyl)phenyl]-1,3-thiazol-5-yl}methyl)amino]phenyl}cyclopropanecarboxylic Acid] |
| 3.16 | O=C(O)C1CC1c1ccc(NCc2cccc(Oc3ccc(Cl)c(Cl)c3)c2)cc1 (single isomer, unassigned; (+)) [Example 28a, (+)-(Trans)-2-{4-[({3-[(3,4-dichlorophenyl)oxy]phenyl}methyl)amino]phenyl}cyclopropanecarboxylic Acid Trifluoroacetate] |
| 5.01 | O=C(O)[C@H]1C[C@@H]1c1ccc(NCc2cccc(Oc3cc(Cl)cc(Cl)c3)c2)cc1 [Example 32, (+)-(trans)-2-{4-[({3-[(3,5-dichlorophenyl)oxy]phenyl}methyl)amino]phenyl}cyclopropanecarboxylic Acid trifluoroacetate] |
| 7.94 | Cc1ccc(Oc2cccc(CNc3ccc([C@H]4C[C@@H]4C(=O)O)cc3)c2)cc1 [Example 34, (+)-(trans)-2-{4-[({3-[(4-methylphenyl)oxy]phenyl}methyl)amino]phenyl}cyclopropanecarboxylic Acid Trifluoroacetate] |
